Experiments:
[1] = target: T1, H^+,K^+ adenosine triphosphatase (Sus scrofa, UniProt P19156); experiment: H+,K+ adenosine triphosphatase inhibition (proton pump inhibition); format: biochemical, hog; conditions: H+,K+ ATPase fraction from hog stomach microsomes, ATP substrate, released inorganic phosphorus; read-out: Enzyme inhibition IC50 value (converted)
T1 construct: hog stomach was homogenized and subjected to ultracentrifugation to obtain a microsome fraction; from tissue; host or cells: hog stomach, microsome fraction (discontinuous Ficoll gradient)
T1 sequence (P19156 2-1034 limits assumed): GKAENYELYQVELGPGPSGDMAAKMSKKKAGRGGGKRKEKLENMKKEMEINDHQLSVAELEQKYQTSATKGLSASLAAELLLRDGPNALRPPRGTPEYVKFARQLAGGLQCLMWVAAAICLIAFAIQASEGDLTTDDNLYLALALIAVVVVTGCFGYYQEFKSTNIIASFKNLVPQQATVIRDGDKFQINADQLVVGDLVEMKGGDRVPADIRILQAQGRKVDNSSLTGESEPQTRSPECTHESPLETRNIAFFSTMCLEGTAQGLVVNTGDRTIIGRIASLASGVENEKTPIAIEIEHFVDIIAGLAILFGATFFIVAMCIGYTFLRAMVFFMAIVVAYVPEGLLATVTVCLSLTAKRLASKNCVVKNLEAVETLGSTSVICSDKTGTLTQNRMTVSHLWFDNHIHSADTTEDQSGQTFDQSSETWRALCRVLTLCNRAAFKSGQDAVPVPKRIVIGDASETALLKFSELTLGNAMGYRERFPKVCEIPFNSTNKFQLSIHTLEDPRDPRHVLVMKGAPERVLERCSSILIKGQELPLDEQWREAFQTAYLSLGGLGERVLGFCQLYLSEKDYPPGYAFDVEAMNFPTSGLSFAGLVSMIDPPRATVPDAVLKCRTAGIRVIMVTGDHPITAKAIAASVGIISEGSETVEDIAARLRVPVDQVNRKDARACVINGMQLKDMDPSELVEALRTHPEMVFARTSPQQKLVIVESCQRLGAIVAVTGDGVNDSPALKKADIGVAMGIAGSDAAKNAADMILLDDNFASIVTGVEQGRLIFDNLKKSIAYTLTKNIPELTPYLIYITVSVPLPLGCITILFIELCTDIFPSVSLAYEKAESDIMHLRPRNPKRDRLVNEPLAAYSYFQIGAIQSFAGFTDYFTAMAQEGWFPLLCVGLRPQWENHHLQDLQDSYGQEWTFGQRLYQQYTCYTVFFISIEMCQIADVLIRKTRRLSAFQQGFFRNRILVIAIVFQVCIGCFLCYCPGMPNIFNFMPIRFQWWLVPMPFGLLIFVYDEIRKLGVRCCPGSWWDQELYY
T1 sequence (P18434 whole entry partner): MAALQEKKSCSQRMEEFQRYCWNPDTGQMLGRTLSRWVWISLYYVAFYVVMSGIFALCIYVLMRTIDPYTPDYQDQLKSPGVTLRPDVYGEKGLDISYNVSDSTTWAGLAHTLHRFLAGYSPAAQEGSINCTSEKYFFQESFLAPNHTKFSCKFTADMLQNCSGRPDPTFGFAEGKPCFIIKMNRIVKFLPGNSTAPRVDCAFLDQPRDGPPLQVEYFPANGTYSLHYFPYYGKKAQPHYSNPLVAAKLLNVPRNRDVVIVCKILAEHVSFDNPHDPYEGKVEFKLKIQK
Procedure: Proton pump inhibition was evaluated by the H^+,K^+ adenosine triphosphatase (to be referred to as "H^+,K^+ ATPase" hereinafter)inhibition.
That is, hog stomach was homogenized and subjected to ultracentrifugation to obtain a microsome fraction, and the microsomes were subjected to discontinuous density gradient ultracentrifugation using 0 and 9% Ficoll solutions to obtain a fraction containing H^+,K^+ ATPase. The H^+,K^+ ATPase activity was determined by measuring the released inorganic phosphorus using ATP as the substrate and an inorganic phosphorus measuring reagent PiSET(IATRON) manufactured by IATRON.

Stress ulcer = experiment: Stress ulcer; format: in vivo, Wistar male rats; conditions: Rattus norvegicus; oral, 7 hours stress loading in water bath at 23° C.; read-out: Antiulcer activity, Stress ulcer, ED50 value
Procedure: (Test Example 3) Stress ulcer
Basically according to the method of Takagi et al. (Japanese Journal of Pharmacology (to be referred to as "Japan. J. Pharmacol." hereinafter), vol.18, pp.9-18, each of the compounds shown in Examples was orally administered to Wistar male rats which have been subjected to fasting of 24 hours (free drinking). Each rat was transferred into a stress cage 30 minutes thereafter and subjected to stress loading by suspending the cage in a water bath controlled at 23° C. to such a depth that the rat was soaked up to its breast.
After 7 hours of the stress loading, the rat was recovered from the water bath to excise the stomach. The length (mm) of each ulcer developed in the stomach was measured under a stereoscopic microscope, and the total length of ulcers per one animal was used as an ulcer index. The dose of each test compound required to inhibit 50% of the ulcer index of the control group was calculated (ED50). The results are shown in Table 3, together with the results of the following pylorus ligation ulcer test.

Pylorus ligation ulcer = experiment: Pylorus ligation ulcer; format: in vivo, Wistar male rats; conditions: Rattus norvegicus; oral, 14 hours after pylorus ligation; read-out: Antiulcer activity, Pylorus ligation ulcer, ED50 value
Procedure: (Test Example 4) Pylorus ligation ulcer
Basically according to the method of Shay et al. (Gastroenterology, vol.5, pp.43-61, 1945), each of the compounds shown in Examples was orally administered to Wistar male rats which have been subjected to fasting of 48 hours (free drinking). After 30 minutes of the compound administration,the pylorus of each rat was ligated.
After 14 hours of standing, the stomach was excised. The length and width of each ulcer developed in the fore-stomach part were measured under a stereoscopic microscope to calculate the ulcer area (length×width). In accordance with the method of Takagi et al. (Japan. J. Pharmacol., vol.24, pp.357-361, 1974), ulcer index was calculated based on the total ulcer area per animal. The dose of each test compound required to inhibit 50% of the ulcer index of the control group was calculated (ED50).

[2] = tested on: ulcer induced by 0.15N hydrochloric acid and 60% ethanol; experiment: Cell protection effect (hydrochloric acid/ethanol-induced ulcer); format: in vivo, Wistar male rats; conditions: Rattus norvegicus, 1 h; oral, 30 minutes before 0.15N HCl / 60% ethanol 5 ml/kg
Procedure: (Test Example 5) Cell protection effect
Basically according to the method of Mizui and Doteuchi (Japan. J. Pharmacol., vol.33, pp.939-945, 1983), each of the compounds shown in Examples was orally administered to Wistar male rats which have been subjected to fasting of 24 hours (free drinking). After 30 minutes of the compound administration, a mixture solution of 0.15N hydrochloric acid and 60% ethanol was orally administered at a dose of 5 ml/kg. After 1 hour of standing, the stomach was excised. The length (mm) of each ulcer developed in the stomach was measured under a stereoscopic microscope to calculate the total length of ulcers per animal as an ulcer index. The dose of each test compound required to inhibit 50% of the ulcer index of the control group was calculated (ED50).

Acute toxicity test = conditions: mouse, in vivo; oral, mice, one week observation
From the text: (Test Example 6) Acute toxicity test
Each of the compounds shown in Examples was orally administered to three ICR male mice per group.

gastric acid secretion = experiment: Gastric acid secretion inhibition activity (pylorus-ligated, histamine-stimulated rats); format: in vivo, Sprague-Dawley (SD) male rats; conditions: Rattus norvegicus; 30 mg/kg oral; pylorus ligated 3 hours later; histamine hydrochloride 30 mg/kg s.c.; total acidity over 3 hours; read-out: Acid secretion inhibition rate (%)
Procedure: (Test Example 2) Gastric acid secretion inhibition activity
Basically according to the method of Satoh et (Journal of Pharmacology and Experimental Therapeutics, vol.248, pp.806-815, 1988), each of the compounds shown in Examples was orally administered at a dose of 30 mg/kg to Sprague-Dawley (SD) male rats which have been subjected to fasting of 24 hours (free drinking).
After 3 hours of the compound administration, the pylorus of each rat was ligated under urethane anesthesia, and 30 mg of histamine hydrochloride per Kg was administered to the rat by subcutaneous injection. After 3 hours of the ligation, the gastric juice was collected to measure its volume and calculate total acidity (mEqH^+ /3 hours) by sodium hydroxide titration. The inhibition rate (%) was calculated by the following formula in which A represents the total gastric juice acidity of control group rat and B represents the total gastric juice acidity of test compound-administered group rat. [formula]

| SMILES | IC50 [1] [µM] | ED50 (Stress ulcer) [mg/kg] | ED50 (Pylorus ligation ulcer) [mg/kg] | ED50 [2] [mg/kg] | LD50 at 168 h (Acute toxicity test) [mg/kg] | inhibition in vivo at 30 mg/kg (gastric acid secretion) [%] |
| --- | --- | --- | --- | --- | --- | --- |
| COCC#Cc1nc(C#N)c(C#N)nc1C#CCOC [Example 7, 5,6-bis(3-methoxy-1-propynyl)-2,3-dicyanopyrazine] | 1.88 | 5.6 | 1.2 | 1.2 | > 1000 | – |
| CCOC(C)C#Cc1nc2ccccc2nc1C#CC(C)OCC (stereo not shown) [Example 10, 2,3-bis(3-ethoxy-1-butynyl)quinoxaline] | 96.2 | 15 | 11 | 1.9 | – | 38 |
| CCC(C#Cc1nc2ccccc2nc1C#CC(CC)OC)OC (stereo not shown) [Example 11, 2,3-bis(3-methoxy-1-pentynyl)quinoxaline] | 30.4 | – | 35 | 41 | > 1000 | 27 |
| COCCOC(C)(C)C#Cc1nc2ccccc2nc1C#CC(C)(C)OCCOC [Example 43, 2,3-bis(3-(2-methoxyethoxy)-3-methyl-1-butynyl)quinoxaline] | – | – | – | 13 | > 1000 | – |
| CCOCCOC(C)(C)C#Cc1nc2ccccc2nc1C#CC(C)(C)OCCOCC [Example 44, 2,3-bis(3-(2-ethoxyethoxy)-3-methyl-1-butynyl)quinoxaline] | 88.9 | 59 | – | 13 | > 1000 | – |
| COC(C)(C)C#Cc1nc2ccccc2nc1C#CC(C)(C)OC [Example 114] | 93 | – | – | 22 | > 1000 | 30 |
| CCC(C#Cc1nc2ccccc2nc1C#CC(CC)OCCOC)OCCOC (stereo not shown) [Example 116] | 188 | 39 | – | 2.7 | > 1000 | 32 |
| CCOCCOC(C#Cc1nc2ccccc2nc1C#CC(CC)OCCOCC)CC (stereo not shown) [Example 117] | 123 | 6.1 | 28 | 8 | > 1000 | 35 |
| CCC(C#Cc1nc2ccccc2nc1C#CC(CC)OCCOC(C)C)OCCOC(C)C (stereo not shown) [Example 119] | 11.1 | – | – | 22 | – | – |
| CCC(C#Cc1nc2ccc(C=O)cc2nc1C#CC(CC)OCCOC)OCCOC (stereo not shown) [Example 138] | 10.7 | – | – | 9.8 | – | – |

From US5583227A, “Antiulcer compounds having a substituted alkynyl or quinoxaline nucleus and methods of making thereof” (Mochida Pharmaceutical Co. Ltd., priority 1994, dated 1996)
